{
  "source": "ChEMBL document CHEMBL4364353",
  "about": "“Lysophosphatidic Acid Receptor 1 Antagonists for the Treatment of Fibrosis” (ACS Med Chem Lett, 2019)",
  "target": "Lysophosphatidic acid receptor 1 (Homo sapiens, UniProt Q92633)",
  "sequence (Q92633 whole entry)": "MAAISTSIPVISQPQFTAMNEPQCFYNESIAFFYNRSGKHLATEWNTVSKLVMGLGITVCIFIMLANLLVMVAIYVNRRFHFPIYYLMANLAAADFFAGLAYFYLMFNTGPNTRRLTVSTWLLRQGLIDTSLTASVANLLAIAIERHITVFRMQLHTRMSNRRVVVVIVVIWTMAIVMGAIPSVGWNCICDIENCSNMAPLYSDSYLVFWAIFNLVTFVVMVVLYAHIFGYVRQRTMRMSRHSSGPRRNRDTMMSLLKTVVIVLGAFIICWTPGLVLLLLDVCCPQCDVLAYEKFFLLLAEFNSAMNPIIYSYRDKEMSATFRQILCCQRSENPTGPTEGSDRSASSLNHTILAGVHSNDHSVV",
  "assay": "Antagonist activity at human LPA1 expressed in CHO cells assessed as reduction in LPA-induced calcium influx incubated for 20 mins",
  "assay_type": "functional, cell-based",
  "data": [
    {"smiles": "Cc1noc(-c2ccc(O[C@H]3CCC[C@H](C(=O)O)C3)cc2)c1CNC(=O)OCc1ccc(Cl)cc1", "values": [
      {"measurement": "IC50", "value": 227, "unit": "nM"}
    ]}
  ]
}
